Experimental data as given in US20220348590A1, “CYCLOOXYGENASE-2 INHIBITORS AND USES THEREOF” (The Board Institute, Inc., priority 2019, published 2022).
pIC50: −log10 of the molar value. Read-outs that look alike come from different tables or passages of the source.

Columns and labels:
[1] = target: T1, ovine COX-1 (oCOX-1) (Ovis aries, UniProt P05979); assay: LCMS-based COX-1 enzymatic inhibition assay (PGE2 quantification); type: biochemical
T1 construct: purchased Cayman Chemicals (Ann Arbor, Mich.)
T1 sequence (P05979 25-600): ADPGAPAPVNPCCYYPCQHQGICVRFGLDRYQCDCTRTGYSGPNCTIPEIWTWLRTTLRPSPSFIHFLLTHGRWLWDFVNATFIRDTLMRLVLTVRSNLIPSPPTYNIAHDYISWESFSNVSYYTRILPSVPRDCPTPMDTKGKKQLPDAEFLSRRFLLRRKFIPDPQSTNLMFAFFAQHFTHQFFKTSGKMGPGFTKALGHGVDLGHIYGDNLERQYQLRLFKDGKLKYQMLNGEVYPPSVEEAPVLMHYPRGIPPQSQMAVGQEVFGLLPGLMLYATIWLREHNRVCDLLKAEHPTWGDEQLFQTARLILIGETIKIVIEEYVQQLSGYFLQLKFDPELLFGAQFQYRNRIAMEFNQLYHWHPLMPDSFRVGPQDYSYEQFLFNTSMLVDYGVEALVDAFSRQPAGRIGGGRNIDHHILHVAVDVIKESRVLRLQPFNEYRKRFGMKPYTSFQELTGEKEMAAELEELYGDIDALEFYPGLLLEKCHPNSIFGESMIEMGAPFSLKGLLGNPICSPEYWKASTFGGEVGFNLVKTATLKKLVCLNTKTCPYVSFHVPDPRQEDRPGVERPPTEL
Description: We have adapted a previously reported cyclooxygenase enzymatic assay utilizing LCMS quantification of PGE2 as the product of COX-1 and COX2 catalyzed conversion of arachidonic acid to evaluate the binding properties of newly synthesized ligands [Cao, 2011]. These optimized and miniaturized (384-well plates) LCMS-based COX-1 and COX2 enzymatic assays enabled us to quickly evaluate newly synthesized ligands for COX2 binding affinity and selectivity vs COX-1. Using a shorter ligand-enzyme incubation time in the LCMS assay (2 minutes vs 10 minutes) also permitted us to prioritize ligands with faster binding kinetics. Considering the relatively slow on-rate kinetics of known coxibs, due to their 3-step binding mechanism [Marnett, 2009], we believe that optimizing this critical parameter will be key to the successful development of a COX2 PET tracer. Using these enzymatic assays, we have evaluated>200 newly synthesized ligands against COX2 and >20 ligands against COX-1. Another critical property necessary for a good PET radiotracer is to have low non-specific binding (NSB) to increase the free fraction and maximize the signal to noise ratio. This property can be evaluated using in-vitro protein binding assays, and we have now evaluated>50 newly synthesized ligands in mouse, rat and human plasma protein binding (PPB) assays as well as >15 ligands in a mouse brain protein binding (BPB) assay.
Ovine COX-1 (oCOX-1), ovine COX2 (oCOX2), human recombinant COX2 (hCOX2), arachidonic acid, PGE2, d4-PGD2, and […] (labeled with deuterium atoms at positions 3 and 4) were purchased from Cayman Chemicals (Ann Arbor, Mich.). The cofactors (−)epinephrine and hematin, and the COX inhibitors indomethacin, resveratrol and diclofenac were purchased from Sigma-Aldrich (St. Louis, Mo.). Celecoxib was purchased from 3B PharmaChem International (Wuhan, China). All organic solvents were HPLC grade or better and were purchased from Thermo Fisher (Hanover Park, Ill.). Formic acid was purchased from EMD Chemicals (San Diego, Calif.). Purified water was prepared by using a Millipore Milli-Q purification system (Millipore, Billerica, Mass.). All other chemicals and solvents were ACS reagent grade, unless stated otherwise.
In an Eppendorf tube, 146 μL of 100 mM Tris.HCl (pH 8.0) buffer, 2 μL of 100 μM hematin (co-factor) and 10 μL of 40 mM L-epinephrine (co-factor) were mixed at room temperature. Next, 20 μL of Tris.HCl (pH 8.0) buffer containing 0.2 μg COX2 or 0.1 μg COX-1 (approximately 1 unit of enzyme; 1 unit COX utilizes 1 nmol 02/mg/min at 37° C.) was added, and the solution was incubated at room temperature for 2 min. A 2 μL aliquot of the COX inhibitor in DMSO was added to the enzyme solution and preincubated at 37° C. for 10 min. Negative controls were identical except that 2 μL aliquots of DMSO without inhibitor were used instead.
Each COX reaction was initiated by adding 20 μL of arachidonic acid in Tris.HCl (pH 8.0) buffer to give a final concentration of 5 μM; and the reaction was terminated after 2 min by adding 20 μL of 2.0 M HCl. The surrogate standards d4-PGE2 and d4-PGD2 (10 μL aliquot of 50 ng/mL solution in methanol) were added to correct for errors or degradation during sample handling and for variation in injection volume or instrument response during LC-MS-MS. After 30 min, PGE2, PGD2 and their surrogate standards were extracted from each incubation mixture using 800 μL hexane/ethyl acetate (50:50, v/v). The organic phase was removed, evaporated to dryness, and reconstituted in 100 μL methanol/water (50:50, v/v) for analysis using LC-MS-MS.
The concentration of PGE2 in each sample was measured using LC-MS-MS, and the percent of COX inhibition by each test solution was determined by comparing the amount of PGE2 produced in the experiment with that produced in the negative control incubation. The formation of PGD2 was measured for quality control purposes, since the levels of PGD2 should be proportional to those of PGE2. […]

[2] = target: T2, human recombinant COX2 (hCOX2) (UniProt P35354); assay: LCMS-based COX2 enzymatic inhibition assay (PGE2 quantification); type: biochemical; design: COX2 2 minutes pge2/pge2d4 area ratio Avg; other: 2 minutes; readout pge2/pge2d4 area ratio; average; COX2 2 minutes pge2/pge2d4 area ratio Avg; LLE; average LLE; COX2 2 minutes pge2 area (counts) Avg; readout pge2 area (counts); other: 2 min; "ovine COX2 (oCOX2), human recombinant COX2 (hCOX2)"; details: 2 minutes; for COX2 2 minutes pge2/pge2d4 area ratio Avg. LLE / COX2 2 minutes pge2 area (counts) Avg. LLE: average LLE; for pIC50: average
T2 sequence (P35354 1-604): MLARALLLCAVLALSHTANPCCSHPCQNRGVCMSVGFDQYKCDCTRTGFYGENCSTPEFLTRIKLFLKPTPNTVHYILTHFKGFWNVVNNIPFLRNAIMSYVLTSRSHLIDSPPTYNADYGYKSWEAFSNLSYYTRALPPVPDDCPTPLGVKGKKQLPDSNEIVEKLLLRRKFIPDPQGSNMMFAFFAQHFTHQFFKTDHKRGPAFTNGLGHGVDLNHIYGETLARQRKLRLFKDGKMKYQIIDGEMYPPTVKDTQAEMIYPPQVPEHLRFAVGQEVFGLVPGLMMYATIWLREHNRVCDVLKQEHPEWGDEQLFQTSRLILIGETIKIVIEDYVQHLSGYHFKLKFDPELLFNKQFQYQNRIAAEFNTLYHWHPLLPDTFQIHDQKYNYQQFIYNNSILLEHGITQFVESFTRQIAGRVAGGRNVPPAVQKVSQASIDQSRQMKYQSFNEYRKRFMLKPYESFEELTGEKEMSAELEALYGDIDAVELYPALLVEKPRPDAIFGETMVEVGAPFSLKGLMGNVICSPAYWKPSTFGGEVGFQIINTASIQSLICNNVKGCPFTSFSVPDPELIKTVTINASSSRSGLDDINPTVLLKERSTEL
Summary of the method: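 Ovine COX-1 (0.1 μg) or human recombinant COX2 (0.2 μg) in 100 mM Tris.HCl pH 8.0 with hematin and epinephrine, preincubated with inhibitor 10 min at 37 °C. Reaction with 5 μM arachidonic acid stopped after 2 min with HCl; PGE2 quantified by LC-MS-MS. IC50 from 12 concentrations in triplicate.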

[3] = 10 minutes, pge2 area (counts), head of this section not shown, inferred
[4] = 10 minutes, pge2 area (counts), head of this section not shown, inferred, read-out: COX1 10 minutes pge2 area (counts) Avg. IC50
[5] = readout pge2/pge2d4 area ratio, read-out: COX2 2 minutes pge2/pge2d4 area ratio Avg. IC50
[6] = readout pge2 area (counts), read-out: COX2 2 minutes pge2 area (counts) Avg. IC50
[7] = 10 minutes, pge2/pge2d4 area ratio, head of this section not shown, inferred
[8] = 10 minutes, readout pge2/pge2d4 area ratio, average LLE
[9] = 10 minutes, readout pge2/pge2d4 area ratio, average, read-out: COX1 10 minutes pge2/pge2d4 area ratio Avg. IC50
[10] = 10 minutes, readout pge2 area (counts), average LLE
[11] = 10 minutes, readout pge2 area (counts), average, read-out: COX1 10 minutes pge2 area (counts) Avg. IC50

COX1 10 minutes pge2 area (counts) Avg. LLE [1, 3] | pIC50 [1, 4] | COX2 2 minutes pge2/pge2d4 area ratio Avg. LLE ([2]; readout pge2/pge2d4 area ratio) | pIC50 [2, 5] | COX2 2 minutes pge2 area (counts) Avg. LLE ([2]; readout pge2 area (counts)) | pIC50 [2, 6] | COX1 10 minutes pge2/pge2d4 area ratio Avg. LLE [1, 7] | COX1 10 minutes pge2/pge2d4 area ratio Avg. LLE [1, 8] | pIC50 [1, 9] | COX1 10 minutes pge2 area (counts) Avg. LLE [1, 10] | pIC50 [1, 11] | Structure (SMILES) | pIC50 [1]
2.207 | 5.75 | 3.898 | 7.24 | 4.023 | 7.28 | – | – | – | – | – | CSc1ccc(-c2cncc(NCc3cccs3)n2)cc1 [Compound 84] | –
– | – | 3.462 | 7.69 | 3.431 | 7.63 | – | 0.04315 | 4.29 | 0.2102 | 4.46 | C[C@H](Oc1cccc(-c2ccc(S(C)(=O)=O)cc2)n1)c1cccs1 (single isomer, unassigned) [Compound 46] | –
0.02014 | 4.52 | 2.94 | 7.38 | 2.995 | 7.47 | 0.2541 | – | 4.75 | – | – | CS(=O)(=O)c1ccc(-n2ccc3ccc(Nc4ccccc4)nc32)cc1 [Compound 72] | –
1.899 | 4.30 | 4.854 | 7.21 | 4.881 | 7.25 | 1.97 | – | 4.37 | – | – | CS(=O)(=O)c1ccc(-c2cccc(NCc3ccns3)n2)cc1 [Compound 87] | –
– | – | 5.44 | 7.74 | 5.694 | 7.84 | – | 2.056 | 4.41 | 2.13 | 4.48 | CS(=O)(=O)c1ccc(-c2cccc(OCc3cccs3)n2)nc1 [Compound 37] | –
– | – | 4.377 | 7.62 | 4.612 | 7.88 | – | 1.0149 | 4.28 | 1.014 | – | CN(Cc1ccoc1)c1cccc(-c2ccc(S(C)(=O)=O)cc2)n1 [Compound 52] | –
2.127 | 4.77 | 4.8 | 7.37 | 4.74 | 7.34 | 2.183 | – | 4.82 | – | – | CS(=O)(=O)c1ccc(-c2cccc(NCc3ccc[nH]3)n2)cc1 [Compound 73] | –
2.306 | 4.80 | 4.709 | 7.20 | 4.67 | 7.16 | 2.306 | – | 4.80 | – | – | COc1ccc(NCc2cccs2)nc1-c1ccc(S(C)(=O)=O)nc1 [Compound 88] | –

Structure (SMILES) | COX1 10 minutes pge2 area (counts) Avg. LLE [1, 3] | pIC50 [1, 4] | COX2 2 minutes pge2/pge2d4 area ratio Avg. LLE ([2]; readout pge2/pge2d4 area ratio) | pIC50 [2, 5] | COX2 2 minutes pge2 area (counts) Avg. LLE ([2]; readout pge2 area (counts)) | pIC50 [2, 6] | COX1 10 minutes pge2/pge2d4 area ratio Avg. LLE [1, 7] | COX1 10 minutes pge2/pge2d4 area ratio Avg. LLE [1, 8] | pIC50 [1, 9] | COX1 10 minutes pge2 area (counts) Avg. LLE [1, 10] | pIC50 [1, 11] | pIC50 [1]
CS(=O)(=O)c1ccc(-n2ccc3ccc(NCc4ccoc4)nc32)cc1 [Compound 83] | – | – | 3.241 | 7.24 | 3.278 | 7.27 | 0.284 | – | – | – | – | 4.28
Cc1coc(CNc2cccc(-c3ccc(S(C)(=O)=O)cc3)n2)c1 [Compound 85] | 1.134 | – | 4.23 | 7.24 | 3.951 | 6.94 | 1.134 | – | – | – | – | 4.28
CS(=O)(=O)c1ccc(-n2ccc3ccc(NCc4cccs4)nc32)cc1 [Compound 57] | −0.1826 | 4.30 | 3.1281 | 7.51 | 3.132 | 7.53 | −0.196 | – | – | – | – | 4.28
